Holding throughout (type): biochemical
Test [1] addresses human JAK2 (a.a. 828-1132) catalytic domain (Homo sapiens (Human), UniProt O60674). The experiment in a line: In vitro JAK kinase assay (HTRF, 1 mM ATP), JAK2. The following applies: at 1 mM ATP. On the technique in general: Time-resolved FRET reads energy transfer from a long-lived donor to a nearby acceptor.
Procedure: (§1) The catalytic activity of JAK1, JAK2 or JAK3 was assayed by measuring the phosphorylation of a biotinylated peptide. The phosphorylated peptide was detected by homogenous time resolved fluorescence (HTRF). […] Reactions were carried out at room temperature for 1 hour and then stopped with 20 μL 45 mM EDTA, 300 nM SA-APC, 6 nM Eu-Py20 in assay buffer (Perkin Elmer, Boston, Mass.). Binding to the Europium labeled antibody took place for 40 minutes and HTRF signal was measured on a Fusion plate reader (Perkin Elmer, Boston, Mass.).
In test [2] the test system is human JAK1 (a.a. 837-1142) catalytic domain. The test can be described thus: In vitro JAK kinase assay (HTRF, 1 mM ATP), JAK1.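 Further: kinase activity followed as phosphorylation of a biotin-tagged peptide, detected by HTRF with Eu-labelled anti-phosphotyrosine antibody and SA-APC, after 1 h reaction at room temperature.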 The conditions noted are these: ratio of JAK2 IC50 to JAK1 IC50 at 1 mM ATP.
Procedure: as §1
For test [3], the target named is human JAK1 (a.a. 837-1142) catalytic domain (Homo sapiens, UniProt P23458). The experiment in a line: In vitro JAK kinase assay (HTRF, 1 mM ATP), JAK1.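 Further: kinase activity followed as phosphorylation of a biotin-tagged peptide, detected by HTRF with Eu-labelled anti-phosphotyrosine antibody and SA-APC, after 1 h reaction at room temperature.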 The conditions noted are these: at 1 mM ATP.
Sequence of human JAK1 (a.a. 837-1142) catalytic domain (Homo sapiens, UniProt P23458) (P23458 whole entry, looked up, the tested form may be a part): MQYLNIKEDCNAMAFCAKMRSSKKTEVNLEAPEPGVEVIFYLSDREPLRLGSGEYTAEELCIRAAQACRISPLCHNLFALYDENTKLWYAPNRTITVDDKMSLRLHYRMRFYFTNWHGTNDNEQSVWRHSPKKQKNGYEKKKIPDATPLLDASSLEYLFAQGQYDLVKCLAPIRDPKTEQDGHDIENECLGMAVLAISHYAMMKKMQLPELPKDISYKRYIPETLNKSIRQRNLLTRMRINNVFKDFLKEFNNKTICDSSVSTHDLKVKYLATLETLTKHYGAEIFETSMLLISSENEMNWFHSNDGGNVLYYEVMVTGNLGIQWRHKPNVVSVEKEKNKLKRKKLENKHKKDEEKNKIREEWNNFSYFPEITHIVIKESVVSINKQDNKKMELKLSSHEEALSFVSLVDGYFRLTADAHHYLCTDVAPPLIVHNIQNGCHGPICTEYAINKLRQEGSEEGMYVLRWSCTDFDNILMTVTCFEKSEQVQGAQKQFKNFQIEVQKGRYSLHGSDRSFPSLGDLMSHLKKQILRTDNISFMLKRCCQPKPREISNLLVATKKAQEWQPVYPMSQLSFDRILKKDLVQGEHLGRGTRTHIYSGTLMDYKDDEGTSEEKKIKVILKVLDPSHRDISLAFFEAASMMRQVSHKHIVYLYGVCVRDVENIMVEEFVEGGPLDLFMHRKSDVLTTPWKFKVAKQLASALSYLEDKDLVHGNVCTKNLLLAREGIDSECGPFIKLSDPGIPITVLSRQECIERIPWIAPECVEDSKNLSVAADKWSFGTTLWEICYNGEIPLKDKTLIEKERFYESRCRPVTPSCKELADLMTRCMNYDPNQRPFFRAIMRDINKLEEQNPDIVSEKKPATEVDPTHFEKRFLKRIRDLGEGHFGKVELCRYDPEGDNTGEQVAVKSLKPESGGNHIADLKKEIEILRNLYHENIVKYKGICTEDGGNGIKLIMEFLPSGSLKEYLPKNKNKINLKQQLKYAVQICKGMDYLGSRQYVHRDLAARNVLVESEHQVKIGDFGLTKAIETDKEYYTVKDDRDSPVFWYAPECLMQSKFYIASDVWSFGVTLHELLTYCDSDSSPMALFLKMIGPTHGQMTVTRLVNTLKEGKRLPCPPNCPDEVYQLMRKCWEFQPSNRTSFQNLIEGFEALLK
Procedure: as §1

A value given as a limit tells only on which side of the number the result lay.

A word on the IC50: it is the concentration needed to halve the response being measured.

Sequence of human JAK2 (a.a. 828-1132) catalytic domain (O60674 828-1132): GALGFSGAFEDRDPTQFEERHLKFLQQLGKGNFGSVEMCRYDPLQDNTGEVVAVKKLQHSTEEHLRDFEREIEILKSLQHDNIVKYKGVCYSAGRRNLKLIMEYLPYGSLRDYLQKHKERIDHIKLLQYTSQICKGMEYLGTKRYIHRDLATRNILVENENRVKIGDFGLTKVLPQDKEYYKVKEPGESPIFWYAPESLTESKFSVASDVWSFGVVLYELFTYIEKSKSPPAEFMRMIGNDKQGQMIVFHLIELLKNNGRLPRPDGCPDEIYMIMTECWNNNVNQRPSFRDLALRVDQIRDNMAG

Take `CC(C)NC(=O)c1ccc(N2CC(CC#N)(n3cc(-c4ccnc5[nH]ccc45)cn3)C2)c(F)c1` [Example 27, 4-{3-(Cyanomethyl)-3-[4-(1H-pyrrolo[2,3-b]pyridin-4-yl)-1H-pyrazol-1-yl]azetidin-1-yl}-3-fluoro-N-isopropylbenzamide]: the IC50 in test [1] was at most 10 nM; in test [3], below 10 nM. In addition, the JAK2/JAK1 entry in test [2] is given as “A (A means greater than or equal to 10)”.
For `C[C@H](NC(=O)c1ccc(N2CC(CC#N)(n3cc(-c4ncnc5[nH]ccc45)cn3)C2)c(F)c1)C(F)(F)F` [Example 10, 4-{3-(Cyanomethyl)-3-[4-(7H-pyrrolo[2,3-d]pyrimidin-4-yl)-1H-pyrazol-1-yl]azetidin-1-yl}-3-fluoro-N-[(1S)-2,2,2-trifluoro-1-methylethyl]benzamide], the results for the IC50 in test [1] and in test [3] were at most 10 nM and below 10 nM, respectively. In addition, the JAK2/JAK1 entry in test [2] is recorded as “A (A means greater than or equal to 10)”.
The matching figures for `C[C@@H](NC(=O)c1cc(F)c(N2CC(CC#N)(n3cc(-c4ncnc5[nH]ccc45)cn3)C2)cc1F)C1CC1` [Example 21, 4-{3-(Cyanomethyl)-3-[4-(7H-pyrrolo[2,3-d]pyrimidin-4-yl)-1H-pyrazol-1-yl]azetidin-1-yl}-N-[(1R)-1-cyclopropylethyl]-2,5-difluorobenzamide]: at most 10 nM, below 10 nM and “A (A means greater than or equal to 10)”.
With `C[C@@H](NC(=O)c1cnc(N2CC(CC#N)(n3cc(-c4ncnc5[nH]ccc45)cn3)C2)cn1)C(F)(F)F` [Example 30, 5-{3-(Cyanomethyl)-3-[4-(7H-pyrrolo[2,3-d]pyrimidin-4-yl)-1H-pyrazol-1-yl]azetidin-1-yl}-N-[(1R)-2,2,2-trifluoro-1-methylethyl]pyrazine-2-carboxamide], the figures for the IC50 in test [1] and in test [3] were 10 to 40 nM and below 10 nM, respectively. The JAK2/JAK1 entry in test [2] is on record as “A (A means greater than or equal to 10)”.
In the same order, the values of `N#CCC1(n2cc(-c3ncnc4[nH]ccc34)cn2)CN(c2ccc(C(=O)NC3(C(F)(F)F)CC3)nc2)C1` [Example 17, 5-{3-(Cyanomethyl)-3-[4-(7H-pyrrolo[2,3-d]pyrimidin-4-yl)-1H-pyrazol-1-yl]azetidin-1-yl}-N-[1-(trifluoromethyl)cyclopropyl]pyridine-2-carboxamide] are at most 10 nM, below 10 nM and “A (A means greater than or equal to 10)”.
Regarding `C[C@@H](NC(=O)c1ccc(N2CC(CC#N)(n3cc(-c4ncnc5[nH]ccc45)cn3)C2)c(F)c1)C(F)(F)F` [Example 16, 4-{3-(Cyanomethyl)-3-[4-(7H-pyrrolo[2,3-d]pyrimidin-4-yl)-1H-pyrazol-1-yl]azetidin-1-yl}-3-fluoro-N-[(1R)-2,2,2-trifluoro-1-methylethyl]benzamide], the values for the IC50 in test [1] and in test [3] were at most 10 nM and below 10 nM, respectively. Also, the JAK2/JAK1 entry in test [2] is listed as “A (A means greater than or equal to 10)”.
For the compound `N#CCC1(n2cc(-c3ncnc4[nH]ccc34)cn2)CN(c2cnc(C(=O)NC3(C(F)(F)F)CC3)cn2)C1` [Example 33, 5-{3-(Cyanomethyl)-3-[4-(7H-pyrrolo[2,3-d]pyrimidin-4-yl)-1H-pyrazol-1-yl]azetidin-1-yl}-N-[1-(trifluoromethyl)cyclopropyl]pyrazine-2-carboxamide], the values for the IC50 in test [1] and in test [3] were 10 to 40 nM and below 10 nM, respectively. Further, in test [2], the JAK2/JAK1 result is recorded as “A (A means greater than or equal to 10)”.
The matching figures for `C[C@@H](NC(=O)c1ccc(N2CC(CC#N)(n3cc(-c4ncnc5[nH]ccc45)cn3)C2)cc1F)C1CC1` [Example 39, 4-{3-(Cyanomethyl)-3-[4-(7H-pyrrolo[2,3-d]pyrimidin-4-yl)-1H-pyrazol-1-yl]azetidin-1-yl}-N-[(1R)-1-cyclopropylethyl]-2-fluorobenzamide]: 10 to 40 nM, below 10 nM and “A (A means greater than or equal to 10)”.
In the same order, the values of `CC(C)NC(=O)c1cc(F)c(N2CC(CC#N)(n3cc(-c4ncnc5[nH]ccc45)cn3)C2)cc1F` [Example 6, 4-{3-(Cyanomethyl)-3-[4-(7H-pyrrolo[2,3-d]pyrimidin-4-yl)-1H-pyrazol-1-yl]azetidin-1-yl}-2,5-difluoro-N-isopropylbenzamide] are at most 10 nM, below 10 nM and “A (A means greater than or equal to 10)”.
With `C[C@H](NC(=O)c1ccc(N2CC(CC#N)(n3cc(-c4ccnc5[nH]ccc45)cn3)C2)cn1)C1CC1` [Example 2, 5-{3-(Cyanomethyl)-3-[4-(1H-pyrrolo[2,3-b]pyridin-4-yl)-1H-pyrazol-1-yl]azetidin-1-yl}-N-[(1S)-1-cyclopropylethyl]pyridine-2-carboxamide], the IC50 in test [1] is at most 10 nM; in test [3] it was below 10 nM. In addition, the JAK2/JAK1 result in test [2] is “A (A means greater than or equal to 10)”.
In the same order, the values of `N#CCC1(n2cc(-c3ncnc4[nH]ccc34)cn2)CN(c2cnc(C(=O)N[C@@H](C3CC3)C(F)(F)F)cn2)C1` [Example 32, 5-{3-(Cyanomethyl)-3-[4-(7H-pyrrolo[2,3-d]pyrimidin-4-yl)-1H-pyrazol-1-yl]azetidin-1-yl}-N-[(1S)-1-cyclopropyl-2,2,2-trifluoroethyl]pyrazine-2-carboxamide] are at most 10 nM, below 10 nM and “A (A means greater than or equal to 10)”.
The matching figures for `C[C@H](NC(=O)c1ccc(N2CC(CC#N)(n3cc(-c4ncnc5[nH]ccc45)cn3)C2)cc1F)C(F)(F)F` [Example 22, 4-{3-(Cyanomethyl)-3-[4-(7H-pyrrolo[2,3-d]pyrimidin-4-yl)-1H-pyrazol-1-yl]azetidin-1-yl}-2-fluoro-N-[(1S)-2,2,2-trifluoro-1-methylethyl]benzamide]: 10 to 40 nM, below 10 nM and “A (A means greater than or equal to 10)”.
In the same order, the values of `C[C@H](NC(=O)c1ccc(N2CC(CC#N)(n3cc(-c4ncnc5[nH]ccc45)cn3)C2)c(F)c1)C1CC1` [Example 5, 4-{3-(Cyanomethyl)-3-[4-(7H-pyrrolo[2,3-d]pyrimidin-4-yl)-1H-pyrazol-1-yl]azetidin-1-yl}-N-[(1S)-1-cyclopropylethyl]-3-fluorobenzamide] are at most 10 nM, below 10 nM and “A (A means greater than or equal to 10)”.
With `N#CCC1(n2cc(-c3ncnc4[nH]ccc34)cn2)CN(c2cc(F)c(C(=O)NCC(F)F)cc2F)C1` [Example 37, 4-{3-(Cyanomethyl)-3-[4-(7H-pyrrolo[2,3-d]pyrimidin-4-yl)-1H-pyrazol-1-yl]azetidin-1-yl}-N-(2,2-difluoroethyl)-2,5-difluorobenzamide], the IC50 in test [1] is at most 10 nM; in test [3], below 10 nM. The JAK2/JAK1 entry in test [2] is on record as “A (A means greater than or equal to 10)”.
For the compound `CC(NC(=O)c1ccc(N2CC(CC#N)(n3cc(-c4ncnc5[nH]ccc45)cn3)C2)cc1)C1CCN(C)CC1` (stereo not drawn) [Example 20, 4-{3-(Cyanomethyl)-3-[4-(7H-pyrrolo[2,3-d]pyrimidin-4-yl)-1H-pyrazol-1-yl]azetidin-1-yl}-N-[1-(1-methylpiperidin-4-yl)ethyl]benzamide], the figures for the IC50 in test [1] and in test [3] were 10 to 40 nM and below 10 nM, respectively. Also, the JAK2/JAK1 result in test [2] is given as “A (A means greater than or equal to 10)”.
On to `C[C@H](NC(=O)c1cnc(N2CC(CC#N)(n3cc(-c4ncnc5[nH]ccc45)cn3)C2)cn1)C(F)(F)F` [Example 31, 5-{3-(Cyanomethyl)-3-[4-(7H-pyrrolo[2,3-d]pyrimidin-4-yl)-1H-pyrazol-1-yl]azetidin-1-yl}-N-[(1S)-2,2,2-trifluoro-1-methylethyl]pyrazine-2-carboxamide], for which the results for the IC50 in test [1] and in test [3] were at most 10 nM and below 10 nM, respectively. Besides, the JAK2/JAK1 entry in test [2] is given as “A (A means greater than or equal to 10)”.
The matching figures for `CC(C)NC(=O)c1ccc(N2CC(CC#N)(n3cc(-c4ncnc5[nH]ccc45)cn3)C2)cc1` [Example 13, 4-{3-(Cyanomethyl)-3-[4-(7H-pyrrolo[2,3-d]pyrimidin-4-yl)-1H-pyrazol-1-yl]azetidin-1-yl}-N-isopropylbenzamide]: 10 to 40 nM, below 10 nM and “A (A means greater than or equal to 10)”.
Consider `C[C@@H](NC(=O)c1cc(F)c(N2CC(CC#N)(n3cc(-c4ncnc5[nH]ccc45)cn3)C2)cc1F)C(F)(F)F` [Example 29, 4-{3-(Cyanomethyl)-3-[4-(7H-pyrrolo[2,3-d]pyrimidin-4-yl)-1H-pyrazol-1-yl]azetidin-1-yl}-2,5-difluoro-N-[(1R)-2,2,2-trifluoro-1-methylethyl]benzamide], for which the IC50 in test [1] was at most 10 nM; in test [3] it was below 10 nM. Besides, in test [2], the JAK2/JAK1 result is recorded as “A (A means greater than or equal to 10)”.
As to `CC(C)NC(=O)c1ccc(N2CC(CC#N)(n3cc(-c4ncnc5[nH]ccc45)cn3)C2)c(F)c1` [Example 3, 4-{3-(Cyanomethyl)-3-[4-(7H-pyrrolo[2,3-d]pyrimidin-4-yl)-1H-pyrazol-1-yl]azetidin-1-yl}-3-fluoro-N-isopropylbenzamide], the IC50 is at most 10 nM in test [1] and below 10 nM in test [3]. For the same compound, in test [2], the JAK2/JAK1 entry is reported as “A (A means greater than or equal to 10)”.
Consider `C[C@@H](NC(=O)c1ccc(N2CC(CC#N)(n3cc(-c4ncnc5[nH]ccc45)cn3)C2)c(F)c1)C1CC1` [Example 4, 4-{3-(Cyanomethyl)-3-[4-(7H-pyrrolo[2,3-d]pyrimidin-4-yl)-1H-pyrazol-1-yl]azetidin-1-yl}-N-[(1R)-1-cyclopropylethyl]-3-fluorobenzamide], for which the IC50 is at most 10 nM in test [1] and below 10 nM in test [3]. In addition, in test [2], the JAK2/JAK1 entry is “A (A means greater than or equal to 10)”.

The record behind these values is US9611269B2, “Azetidinyl phenyl, pyridyl or pyrazinyl carboxamide derivatives as JAK inhibitors” (Incyte Corporation, priority 2011, dated 2017).
